Results taken from patent US8461183B2, “PPAR agonist compounds, preparation and uses” (Genfit, priority 2008, dated 2013).

Key:
[1] = system: 3T3-L1 murine pre-adipocytes; assay: PPARγ functional effect: adipogenesis in 3T3-L1 pre-adipocytes (triglycerides, adiponectin); type: cell-based, Mus musculus; details: 3T3-L1, 9 days of treatment, 30 nM to 30 μM
Method: The functional effect of activation of PPARγ is evaluated in vitro on a line of pre-adipocyte cells 3T3-L1 (Thompson G M et al., 2004) by measuring the concentration of intracellular triglycerides and the concentration of adiponectin secreted in the culture medium after 9 days of treatment with the compounds according to the invention.
At confluence, the cells were then rinsed with PBS (Phosphate Buffered Saline solution) and the culture medium was replaced with DMEM 4.5 g/L glucose (10% FCS, 1% L-glutamine, 100 units/mL penicillin and 100 μg/mL streptomycin, 0.25 mM) containing a cocktail for initiation of adipocyte differentiation (IBMX (3-isobutyl-1-methylxanthine Sigma; 17018), 0.1 μM dexamethasone (Sigma; D1756) and 0.4 μM of insulin (Sigma; I2643). The cells were also treated with the compounds according to the invention (1 μL of solubilized compound/mL of medium, 200 μL per well).
After 2 days of incubation, the cells were washed with PBS and the differentiation medium was replaced with DMEM 4.5 g/L of glucose supplemented with 10% FCS, 1% L-glutamine, 100 units/mL penicillin and 100 μg/mL streptomycin, 0.4 μM insulin, and the compounds according to the invention for the purpose of completing cellular differentiation and obtaining adipocytes. The medium was changed every 2 days until total differentiation. After culture for 9 days, the treatment was stopped by withdrawing the culture medium, which was stored for assaying secreted adiponectin. The cells were then washed twice with PBS and placed in isopropanol for membrane permeabilization. The content of intracellular triglycerides was evaluated immediately.
Quantification of intracellular triglycerides was performed with the “Triglyceride Enzymatic PAP1000” kit (bioMérieux; 61238) according to the supplier's recommendations. Secreted adiponectin was measured in the culture medium using the “Mouse Adiponectin/Acrp30 Elisa Kit” kit (R&D Systems; DY1119) according to the supplier's recommendations.

[2] = system: PPARδ target genes (PDK4, CPT1b, UCP2) in murine myocytes; assay: Expression of PPARδ target genes in murine myocytes (differentiated C2C12 cells); type: cell-based; details: 24 hours, Cpd 7 at 0.1, 1, 10 μM, Cpd 24 at 0.2, 2, 20 μM, normalized to 36B4
Method: The PPARδ agonist properties previously measured in vitro were evaluated by measuring, in murine myocytes, the expression of genes involved in lipid and carbohydrate metabolism and energy expenditure (PDK4, CPT1b, UCP2). Regulation of expression of these genes, in this cell type, is a direct consequence of the activation of PPARδ by the compounds according to the invention. The greater the increase in expression of the genes, the more the compound according to the invention is a stimulator of metabolism in muscle cells (Dressel U et al., 2003).
The C2C12 murine cells (from ECACC) are cultivated in DMEM medium (Gibco; 41965-039) supplemented with 1% L-glutamine (Gibco; 25030), 1% penicillin/streptomycin (VWR; BWSTL0022/100) and 10% decomplemented fetal calf serum (FCS. Gibco; 10270-106).
The cells are seeded in 24-well plates at a density of 50×10^3 cells/well. At confluence, the medium is replaced with a differentiation medium (base culture medium supplemented with 2% of horse serum (Gibco; 26050-088)) then culture is continued at 37° C. and 5% CO2 for 7 days in order to permit differentiation of the myoblasts into myocytes.
After 6 days of differentiation, the cells are put in a deprivation medium (base culture medium without serum) for 6 hours. The cells are then treated with the compounds according to the invention in the deprivation medium. The compounds according to the invention were tested at doses of 0.1, 1, 10 μM and 0.2, 2 and 20 μM respectively. The compounds according to the invention were dissolved in dimethylsulfoxide (DMSO, Sigma; D5879). The cells are treated for 24 hours at 37° C., 5% CO2. The effects for the compounds tested were compared with the effect of DMSO alone at a concentration of 0.1%.
These procedures were performed on the cells essentially as described in Example 10 (point c) of the Protocols.
The following primer pairs specific to the genes investigated were used: […]

db/db mouse [3] = assay: Antidiabetic character in the db/db mouse: plasma glycemia, insulinemia, HOMA index; type: in vivo; details: 30 mpk oral, 8 days
Method: (§1) The aim of this study is to evaluate in vivo the antidiabetic character of the compounds according to the invention, in the db/db mouse (Berger J et al., 1996). The antidiabetic effect of the compounds is evaluated by measuring glycemia and insulinemia after 8 days of treatment. In diabetic animals (as in humans), administration of glucose leads to a significant increase in the plasma level of insulin. This induced hyperinsulinemia causes a lowering of glycemia, which is delayed in insulin-resistant animals, for example in the db/db mouse.
Male db/db mice (CERJ—Le Genest St Isle-France) are used for this experiment. After acclimation for one week, the mice were weighed and put into groups of 8 animals, selected in such a way that the distribution of their bodyweight and of their fasting glycemia determined for the first time before the experiment are uniform. The compound tested was suspended in carboxymethylcellulose (Sigma C4888) and administered by stomach tube, at a rate of once a day for 9 days at the chosen dose. The animals had free access to water and food (standard diet) and were housed in ventilated cages with a rhythm of light and darkness of 12 hours/12 hours at a constant temperature of 20±3° C. The food intake and weight gain were recorded throughout the experiment. After administration of the compound for 8 days, a blood sample was taken by puncture in the retro-orbital sinus of the animals under volatile anesthesia with isoflurane in order to measure the plasma concentrations of glucose and insulin.
Assay of murine insulin is carried out by the Elisa method (Insulin Elisa Kit-Crystal Chem. USA). A mouse anti-insulin antibody is fixed on a microplate. The serum to be assayed for insulin is then deposited on this plate. A guinea pig anti-insulin antibody will recognize the insulin/mouse monoclonal anti-insulin antibody complex and bind to it. […]
(§2) Glucose was determined by enzyme assays (bioMérieux-Lyons-France) according to the suppliers recommendations.

db/db mouse [4] = assay: Glucose tolerance test in the db/db mouse; type: in vivo; details: 30 mpk, treated 9 days, oral glucose 1 g/kg after fasting
Method: as §1
After 9 days, the animals were deprived of food for 16 hours before carrying out the glucose tolerance test. The latter consists of a single administration of glucose after fasting (administered orally at a dose of 1 g/kg). Blood samples were then taken from time to time to study the evolution of plasma glycemia.
as §2

Structure (SMILES) | accumulation of triglycerides in adipocytes [1] | secretion of adiponectin [1] | expression of CPT1b [2] | expression of PDK4 [2] | expression of UCP2 [2] | glycemic profile (plasma glucose) (db/db mouse [3]) | insulinemic profile (plasma insulin) (db/db mouse [3]) | HOMA index (db/db mouse [3]; calculated from plasma glucose and insulin) | glucose tolerance test (insulin resistance) (db/db mouse [4])
COc1nc(-c2ccccc2)ccc1CNc1ccc(CCC(=O)O)cc1 [Cpd 19, 3-(4-(((2-methoxy-6-phenylpyridin-3-yl)methyl)amino)phenyl)propanoic acid] | dose-dependent stimulation | dose-dependent stimulation | – | – | – | – | – | – | –
COc1nc(-c2ccc(C(F)(F)F)cc2)ccc1COc1ccc(OCC(=O)O)cc1 [Cpd 24, 2-(4-((2-methoxy-6-(4-(trifluoromethyl)phenyl)pyridin-3-yl)methoxy)-phenoxy)ethanoic acid] | dose-dependent stimulation | dose-dependent stimulation | significant effects of stimulating expression | significant effects of stimulating expression | significant effects of stimulating expression | overall improvement | overall improvement | decrease | marked decrease in insulin resistance
